From patent US20180153830A1, “SELECTIVE INHIBITORS OF UNDIFFERENTIATED CELLS” (Yissum Research Development Company of the Hebrew …, priority 2012, published 2018)
Counter-ions that a name gives are not always drawn. Peptide text beside a SMILES is read from it. * marks the point of attachment. Cbz = O=C(OCc1ccccc1)*; CH2F = FC*

Experiments:
[1] = tested on: human embryonic stem cells; experiment: Oleic acid rescue assay; assay type: cell-based; settings: 20 μM PluriSIn (2 μM amsacrine); up to 100 μM BSA-OA
Protocol: Human embryonic stem cells were cultured without feeder cells in CELLSTAR® 24-well tissue culture plates (Greiner Bio-One) pre-coated with Matrigel™, using mTeSR1 defined medium. […] After 24 hours, the cells were subjected to microscopy imaging and to cell viability measurements.
In order to further investigate the effect of SCD activity on hPSC viability, the ability of exogenous supplementation of oleic acid (the direct product of SCD1) to rescue cells from PluriSIn-induced apoptosis was further studied, using procedures described in the Materials and Methods section. Cells were exposed to PluriSn #1 in the presence of increasing concentrations of BSA-conjugated oleic acid (BSA-OA).
For comparison, cells were exposed to 20 μM of PluriSIn #1, #2, #3 and #6 in the presence of 100 μM BSA-OA.

[2] = tested on: human pluripotent stem cells (hPSCs); experiment: Pilot cytotoxicity screen with 50 commercially available compounds; assay type: cell-based; settings: within 24 hours
Protocol: (§1) The CellTiter-Glo® luminescent cell viability assay (Promega, Madison, Wis.) was implemented as a high-throughput screening (HTS) assay for a chemical library screen in a 384-well format. After the DMSO tolerance of the assay was assessed, and the optimal cell numbers were determined for each cell type, a pilot screen was performed with the following 50 commercially available compounds:
(§2) 3-acetamidophenol, 4-acetamidophenol, 6-methylcoumarin, acetaminophen, acetazolamide, actidione, amantadine hydrochloride, aminosalicylic acid, amodiaquine, amsacrine hydrochloride, aztreonam, caffeine, carboplatin, cefamandole sodium, cholic acid, ciprofloxacin, clozapine, coumarin, crotaline, diflunisal, dopamine, doxycycline, erythromycin, estradiol, famotidine, fenofibrate, fludrocortisone acetate, gentamicin, imipramine, isoniazid, isoproterenol, kanamycin, ketoconazole, L-thyroxine, mefenamic acid, nadolol, naibuphine hydrochloride hydrate, nizatidine, norepinephrine, phenobarbital, quinine hydrochloride, salicylate, sodium 2-mercapto-ethanesulfonate, sulfasalazine, sulindac, tetracycline, tetraethylthiarum disulfide, timolol maleate, valproic acid sodium, and WY-14643.
(§3) A pilot screen was then performed with 50 commercially-available compounds (as described in the Materials and Methods section hereinabove), which were randomly selected from a bank of known cytotoxic compounds. […]

hPSCs = experiment: hPSC viability after SCD1 inhibitors with or without oleic acid; assay type: cell-based, human; settings: 75 nM inhibitor, 100 μM oleic acid, 48 hours
Protocol: (§4) In order to determine whether hPSC viability indeed depends on functional SCD1 activity, hPSCs were exposed to 75 nM of the specific SCD1 inhibitors A939572 and CAY-10566 for 48 hours. Some samples were supplemented with 100 μM oleic acid in order to evaluate the effect of exogenous supplementation of oleic acid (a product of SCD1 activity) on cell death.

[3] = as above; assay type: cell-based, human; settings: human, human pluripotent stem cells (hPSCs), 75 nM, read-out: decrease in viability of hPSCs
Protocol: as §4

[4] = tested on: human embryonic stem cells; experiment: Pancaspase inhibitor effect on PluriSIn #1-induced cell death; assay type: cell-based; settings: 25 μM or 100 μM, 1 hour before 20 μM PluriSIn #1; 24 hours
Protocol: The effect of the pancaspase inhibitor Z-VAD-FMK on PluriSIn #1-induced cell death was also examined. Cells were treated with 25 μM or 100 μM of Z-VAD-FMK, and 1 hour later PluriSIn #1 (20 μM) was added to the medium. After 24 hours, the cultures were subjected to cell viability measurements, as described hereinabove.

[5] = Pilot cytotoxicity screen with 50 commercially available compounds; assay type: cell-based, human; settings: human; after 24 hours, at a concentration of 1-3 μM; read-out: decrease in cell viability
Protocol: as §1, §2, §3

[6] = tested on: embryonic stem cells and differentiated cells (human fibroblasts); experiment: Cytotoxicity of ER stress inducer and protein synthesis inhibitor with or without oleic acid

## COc1cc(NS(C)(=O)=O)ccc1Nc1c2ccccc2nc2ccccc12 [amsacrine hydrochloride, reference compound]
[1]
  protection by BSA-conjugated oleic acid (BSA-OA) against cell death induced by the compound: did not protect
[2]
  cell killing: killed almost all cells

## Cc1nnc(-c2ccc(N3CCC(Oc4cc(F)ccc4Cl)CC3)nn2)o1 [CAY-10566, 3-[4-(2-chloro-5-fluorophenoxy)-1-piperidinyl]-6-(5-methyl-1,3,4-oxadiazol-2-yl)-pyridazine]
hPSCs
  rescue from SCD1 inhibitor-induced cell death by oleic acid: completely rescued
[3]
  cytotoxicity at 48 h, 75 nM: > 80%

## COC(=O)C[C@H](NC(=O)[C@H](C)NC(=O)[C@@H](NC(=O)OCc1ccccc1)C(C)C)C(=O)CF [Z-VAD-FMK] (Cbz-Val-Ala-Asp(OMe)-CH2F)
[4]
  suppression of PluriSIn #1-induced cell death: significant suppressed PluriSIn #1-induced cell death

## C[C@@H]1C[C@@H]([C@H](O)CC2CC(=O)NC(=O)C2)C(=O)[C@@H](C)C1 [cycloheximide]
[5]
  cytotoxicity at 24 h: ~50%
[6]; 100 μM oleic acid
  protection by oleic acid against the compound's cytotoxicity: does not protect
[6]; 1 mM dithiothreitol or 10 μM cycloheximide, 48 hours
  cytotoxicity towards embryonic stem cells and differentiated cells: cytotoxic towards both embryonic stem cells and differentiated cells
